# Source: paper PMC12703428, “Development of Granzyme A Turn‐ON Fluorescent Activity‐Based Probes” (Chembiochem, 2025)
# Biological target: T1, pro‐form of GzmA (without signal peptide) (Homo sapiens, UniProt P12544)
# T1 construct: purchased R&D Systems 2905-SE-010
# T1 sequence (P12544 29-262): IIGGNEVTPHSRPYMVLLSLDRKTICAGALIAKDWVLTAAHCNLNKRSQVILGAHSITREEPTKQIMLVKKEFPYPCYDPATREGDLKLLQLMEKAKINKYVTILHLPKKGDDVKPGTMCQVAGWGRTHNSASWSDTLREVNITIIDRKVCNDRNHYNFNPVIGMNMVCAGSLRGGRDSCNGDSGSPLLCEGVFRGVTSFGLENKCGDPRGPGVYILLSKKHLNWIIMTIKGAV
# Assay: In-gel fluorescence labeling of pro-form of hGzmA
# Assay type: biochemical
# Conditions: probe 50 nM, 2 h, 37 °C
# Procedure: Figure 3 GzmA ABPs covalently and competitively label active human and mouse GzmA. […] Recombinant hGzmA (100 nM) was incubated with varying concentrations of each ABP at 37 °C. […] Recombinant hGzmA (100 nM) was preincubated with covalent inhibitors 1 or 2 (5 μM) for 2 h, followed by labeling with ABPs 3 -5 (50 nM) for 2 h at 37 °C. Note: […] C) Structure of qABP 6. D) Quenched natures of 5 and 6. […] F) Labeling of mGzmA (1 μM) with 5 and 6 (1 μM, 24 h, 37 °C). […] Recorded fluorescence at Ex/Em: 380/460 nm for residual GzmA proteolytic activity. […] B. Cell culture and preparation of cell lysates All cell lines were cultured at 37 °C under 5% CO2 in a humidified atmosphere. […] The supernatant was collected, and protein concentration was measured using a Pierce BCA protein assay. […] In-gel fluorescence imaging […] […] In-gel fluorescence and SYPRO-Ruby staining images were acquired on a Typhoon FLA9500 instrument, while western blot images were acquired on an […] […] Conditions for probe/inhibitor treatment for in-gel fluorescence analysis: Inhibitors and probes were incubated with active (or pro-) GzmA followed by treatment with 4X SDS reducing sample buffer. […] 20 μL of each sample was loaded onto a 15% polyacrylamide gel, which was then subjected to electrophoresis followed by the acquisition of in-gel fluorescence images. […]
substance,measurement,value
IGNR [compound 5],Labeling of pro-form of GzmA,No labeling
